These results are taken from patent publication US20210038607A1, “OXADIAZOLYLTHIOPHENE DERIVATIVES USEFUL AS HISTONE DEACETYLASE INHIBITORS” (Karus Therapeutics Limited, priority 2018, published 2021).

The test system of experiment [1] is acetylated α-tubulin in A549 lung adenocarcinoma cells. The experiment is described as follows: Acetylated α-tubulin in-cell western (ICW) assay. The experiment is classed as cell-based. The conditions noted are these: Homo sapiens, 16 h exposure, relative to 40 μM scriptaid positive control, read-out: EC50 Ac-α-tubulin, A549 cells. As to the method: (§1) Acetylated α-Tubulin and Histone H3 in-Cell Western (ICW) Assays
(§2) A549 cells were maintained in DMEM (Life Technologies)+10% FBS+2 mM glutamine & penicillin (10 μg/mL) and streptomycin ([…]. 10,000 A549 cells per well were plated into 96 well tissue culture plates (Corning) and incubated at 37° C. overnight in a humidified atmosphere containing 5% CO2 prior to addition of compounds. Compounds (dissolved in 100% DMSO) were diluted into cell culture media at 2× final assay concentration. 2× compound or DMSO (negative control) were added to cells (final DMSO concentration 0.4%). Untreated control wells received media. For acetylated α-tubulin assays, 40 μM scriptaid was used as a positive control. For acetylated histone H3 assays, 40 μM Trichostatin A (TSA) was used as a positive control. Cells were exposed to compound at 37° C. in a humidified atmosphere containing 5% CO2 for 16 h.
(§3) Measurement of the impact of compounds on levels of acetylated α-tubulin and histone H3 was performed using specific antibodies and near-infrared immunofluorescent dyes. Briefly, media was removed from wells of assay plates. Cells were washed once with PBS and fixed in 3.7% formaldehyde PBS solution at room temperature for 20 min. Cells were then permeabilised by washing 5 times in 0.1% triton-X-100 PBS at room temperature with gentle agitation for 5 min per wash. Non-specific antibody staining was blocked by the addition of Odyssey blocking buffer (Li-Cor) for 1.5 h at room temperature with gentle agitation. Cells were then incubated with primary antibody (mouse monoclonal anti-acetylated α-tubulin (clone 6-11B-1), Sigma or rabbit polyclonal anti-acetylated histone H3, Millipore) diluted in Odyssey blocking buffer at 4° C. with gentle shaking overnight (no antibody control and secondary antibody only wells were incubated with Odyssey blocking buffer only). Cells were washed five times with 0.1% tween PBS and labelled with secondary antibody (IR dye 800CW-conjugated goat anti mouse IgG or -goat anti rabbit IgG, Li-Cor) and cell stains Sapphire700 (Li-Cor) and Draq5 (Biostatus) diluted in Odyssey blocking buffer at room temperature in the dark with gentle shaking for 1 h (no antibody control wells were incubated with Odyssey blocking buffer only and secondary antibody only with diluted secondary antibody but no cell stains). Cells were washed with 0.1% Tween PBS five times and scanned using a Li-Cor Odyssey SA plate reader in 700 and 800 nm channels. Acetylated α-tubulin or histone H3 signal was normalised to cell number using the cell stain signal. Percentage increase in acetylated α-tubulin or histone H3 after compound treatment over the mean of DMSO treated controls, relative to scriptaid and TSA positive controls, respectively was calculated. EC50 values were calculated using GraphPad Prism software and nonlinear regression with 0% bottom and 100% top constraints.

Experiment [2] concerns acetylated histone H3 in A549 lung adenocarcinoma cells. Put plainly: Acetylated histone H3 in-cell western (ICW) assay. The format is cell-based. The conditions noted are these: Homo sapiens, 16 h exposure, relative to 40 μM Trichostatin A positive control, read-out: EC50 Ac-histone H3, A549 cells. As to the method: as §1, §2, §3

Bounds are passed on as bounds.

With `COC1(C(F)(F)F)CN(C(=O)c2cnnc(N(Cc3ccc(-c4noc(C(F)(F)F)n4)s3)c3cnccn3)c2)C1` [Example GL, 5-[3-Methoxy-3-(trifluoromethyl)azetidine-1-carbonyl]-N-(pyrazin-2-yl)-N-({5-[5-(trifluoromethyl)-1,2,4-oxadiazol-3-yl]thiophen-2-yl}methyl)pyridazin-3-amine], the EC50 was ≤ 1 µM in experiment [1] and ≥ 10 µM in experiment [2].
On to `CNC(=O)c1ccc(N(Cc2ccc(-c3noc(C(F)(F)F)n3)s2)c2cnccn2)nn1` [Example FC, N-Methyl-6-[(pyrazin-2-yl)({5-[5-(trifluoromethyl)-1,2,4-oxadiazol-3-yl]thiophen-2-yl}methyl)amino]pyridazine-3-carboxamide], for which the EC50 in experiment [1] is ≤ 1 µM; in experiment [2] it was ≥ 10 µM.
With `O=C(c1cnnc(N(Cc2ccc(-c3noc(C(F)(F)F)n3)s2)c2cnccn2)c1)N1CCCC1` [Example EA, N-(Pyrazin-2-yl)-5-(pyrrolidine-1-carbonyl)-N-({5-[5-(trifluoromethyl)-1,2,4-oxadiazol-3-yl]thiophen-2-yl}methyl)pyridazin-3-amine], the 50% effective concentration (EC50) in experiment [1] is ≤ 1 µM; in experiment [2] it was ≥ 10 µM.
For `O=C(c1ccc(N(Cc2ccc(-c3noc(C(F)(F)F)n3)s2)c2cnccn2)nn1)N1CC[S+]([O-])CC1` [Example FD, 4-{6-[(Pyrazin-2-yl)({5-[5-(trifluoromethyl)-1,2,4-oxadiazol-3-yl]thiophen-2-yl}methyl)amino]pyridazine-3-carbonyl}-1lambda4-thiomorpholin-1-one], the EC50 in experiment [1] was ≤ 1 µM; in experiment [2] it was ≥ 10 µM.
The matching figures for `O=C(c1ccc(N(Cc2ccc(-c3noc(C(F)(F)F)n3)s2)c2cnccn2)nn1)N1CC(O)(C(F)(F)F)C1` [Example FK, 1-{6-[(Pyrazin-2-yl)({5-[5-(trifluoromethyl)-1,2,4-oxadiazol-3-yl]thiophen-2-yl}methyl)amino]pyridazine-3-carbonyl}-3-(trifluoromethyl)azetidin-3-ol]: ≤ 1 µM and ≥ 10 µM.
On the same counts, the results for `O=C(c1ccc(N(Cc2ccc(-c3noc(C(F)(F)F)n3)s2)c2cnccn2)nn1)N1CCC12COC2` [Example FH, 6-{6-Oxa-1-azaspiro[3.3]heptane-1-carbonyl}-N-(pyrazin-2-yl)-N-({5-[5-(trifluoromethyl)-1,2,4-oxadiazol-3-yl]thiophen-2-yl}methyl)pyridazin-3-amine] are ≤ 1 µM and ≥ 10 µM.
Turning to `COC1CN(C(=O)c2ccc(N(Cc3ccc(-c4noc(C(F)(F)F)n4)s3)c3cnccn3)nn2)C1` [Example DR, 6-(3-Methoxyazetidine-1-carbonyl)-N-(pyrazin-2-yl)-N-({5-[5-(trifluoromethyl)-1,2,4-oxadiazol-3-yl]thiophen-2-yl}methyl)pyridazin-3-amine], the figures for the EC50 in experiment [1] and in experiment [2] were ≤ 1 µM and ≥ 10 µM, respectively.
The matching figures for `O=C(O)c1cnnc(N(Cc2ccc(-c3noc(C(F)(F)F)n3)s2)c2cc(C(F)(F)F)cnn2)c1` [Example ES, 6-[({5-[5-(Trifluoromethyl)-1,2,4-oxadiazol-3-yl]thiophen-2-yl}methyl)[5-(trifluoromethyl)pyridazin-3-yl]amino]pyridazine-4-carboxylicacid]: ≥ 10 µM and ≥ 10 µM.
The matching figures for `O=C(c1ccc(N(Cc2ccc(-c3noc(C(F)(F)F)n3)s2)c2cnccn2)nn1)N1CCC2(COC2)C1` [Example FJ, 6-{2-Oxa-6-azaspiro[3.4]octane-6-carbonyl}-N-(pyrazin-2-yl)-N-({5-[5-(trifluoromethyl)-1,2,4-oxadiazol-3-yl]thiophen-2-yl}methyl)pyridazin-3-amine]: ≤ 1 µM and ≥ 10 µM.
In the case of `O=C(c1cnnc(N(Cc2ccc(-c3noc(C(F)(F)F)n3)s2)c2cnccn2)c1)N1C[C@H]2C[C@@H]1CO2` [Example FW, 5-[(1R,4R)-2-Oxa-5-azabicyclo[2.2.1]heptane-5-carbonyl]-N-(pyrazin-2-yl)-N-({5-[5-(trifluoromethyl)-1,2,4-oxadiazol-3-yl]thiophen-2-yl}methyl)pyridazin-3-amine], the EC50 in experiment [1] is ≤ 1 µM; in experiment [2], ≥ 10 µM.
On the same counts, the results for `CNC(=O)c1cnnc(N(Cc2ccc(-c3noc(C(F)(F)F)n3)s2)c2cnccn2)c1` [Example DY, N-Methyl-6-[(pyrazin-2-yl)({5-[5-(trifluoromethyl)-1,2,4-oxadiazol-3-yl]thiophen-2-yl}methyl)amino]pyridazine-4-carboxamide] are ≤ 1 µM and ≥ 10 µM.
On the same counts, the results for `N#Cc1cnnc(N(Cc2ccc(-c3noc(C(F)(F)F)n3)s2)c2cnccn2)c1` [Example EE, 6-[(Pyrazin-2-yl)({5-[5-(trifluoromethyl)-1,2,4-oxadiazol-3-yl]thiophen-2-yl}methyl)amino]pyridazine-4-carbonitrile] are ≤ 1 µM and ≥ 10 µM.
As for `COC1CN(C(=O)c2cnnc(N(Cc3ccc(-c4noc(C(F)(F)F)n4)s3)c3cnccn3)c2)C1` [Example DZ, 5-(3-Methoxyazetidine-1-carbonyl)-N-(pyrazin-2-yl)-N-({5-[5-(trifluoromethyl)-1,2,4-oxadiazol-3-yl]thiophen-2-yl}methyl)pyridazin-3-amine], the concentration for a half-maximal effect (EC50) in experiment [1] was ≤ 1 µM; in experiment [2], ≥ 10 µM.
On the same counts, the results for `O=C(c1cnnc(N(Cc2ccc(-c3noc(C(F)(F)F)n3)s2)c2cnccn2)c1)N1CCC1` [Example FS, 5-(Azetidine-1-carbonyl)-N-(pyrazin-2-yl)-N-({5-[5-(trifluoromethyl)-1,2,4-oxadiazol-3-yl]thiophen-2-yl}methyl)pyridazin-3-amine] are ≤ 1 µM and ≥ 10 µM.
The matching figures for `FC(F)(F)c1cnnc(N(Cc2ccc(-c3noc(C(F)(F)F)n3)s2)c2cnccn2)c1` [Example EF, N-(Pyrazin-2-yl)-5-(trifluoromethyl)-N-({5-[5-(trifluoromethyl)-1,2,4-oxadiazol-3-yl]thiophen-2-yl}methyl)pyridazin-3-amine]: 1 to 10 µM and ≥ 10 µM.
On the same counts, the results for `O=C(c1cnnc(N(Cc2ccc(-c3noc(C(F)(F)F)n3)s2)c2cnccn2)c1)N1CCOCC1` [Example EB, 5-(Morpholine-4-carbonyl)-N-(pyrazin-2-yl)-N-({5-[5-(trifluoromethyl)-1,2,4-oxadiazol-3-yl]thiophen-2-yl}methyl)pyridazin-3-amine] are ≤ 1 µM and ≥ 10 µM.
With `[O-][S+]1CCN(Cc2ccc(N(Cc3ccc(-c4noc(C(F)(F)F)n4)s3)c3cnccn3)nn2)CC1` [Example FO, 4-({6-[(Pyrazin-2-yl)({5-[5-(trifluoromethyl)-1,2,4-oxadiazol-3-yl]thiophen-2-yl}methyl)amino]pyridazin-3-yl}methyl)-1lambda4-thiomorpholin-1-one], the EC50 in experiment [1] is ≤ 1 µM; in experiment [2], ≥ 10 µM.
On the same counts, the results for `Cc1cnc(N(Cc2ccc(-c3noc(C(F)(F)F)n3)s2)c2cnccn2)cn1` [Example BH, 5-Methyl-N-(pyrazin-2-yl)-N-({5-[5-(trifluoromethyl)-1,2,4-oxadiazol-3-yl]thiophen-2-yl}methyl)pyrazin-2-amine] are 1 to 10 µM and ≥ 10 µM.
